ChEMBL document CHEMBL2169869, “Assay and inhibition of diacylglycerol lipase activity” (Bioorg Med Chem Lett, 2012)
Activity calls are given as the source filed them. No cut-off for these calls is given here.

What was measured:
[1] = target: T1, Fatty-acid amide hydrolase 1 (Rattus norvegicus) (UniProt P97612); experiment: Inhibition of rat histidine tagged FAAH expressed in Escherichia coli at 10 uM by coumarin ester substrate fluorescence assay
T1 sequence (whole entry): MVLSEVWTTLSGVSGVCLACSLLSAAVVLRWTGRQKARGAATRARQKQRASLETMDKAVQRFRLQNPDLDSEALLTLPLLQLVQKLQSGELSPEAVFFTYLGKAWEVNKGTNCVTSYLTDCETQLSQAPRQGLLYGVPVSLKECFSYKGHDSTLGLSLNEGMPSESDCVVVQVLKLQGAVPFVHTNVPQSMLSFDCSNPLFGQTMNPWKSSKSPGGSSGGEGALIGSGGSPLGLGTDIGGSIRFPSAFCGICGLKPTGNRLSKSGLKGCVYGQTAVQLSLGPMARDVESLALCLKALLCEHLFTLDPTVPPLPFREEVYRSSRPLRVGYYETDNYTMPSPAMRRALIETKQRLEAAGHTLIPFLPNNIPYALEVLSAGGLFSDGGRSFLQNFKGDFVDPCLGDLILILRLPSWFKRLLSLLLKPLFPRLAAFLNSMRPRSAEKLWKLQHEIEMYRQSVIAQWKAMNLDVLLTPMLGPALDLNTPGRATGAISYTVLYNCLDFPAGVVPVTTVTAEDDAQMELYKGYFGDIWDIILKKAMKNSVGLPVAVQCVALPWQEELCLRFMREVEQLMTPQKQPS

Sus scrofa = species: Sus scrofa; experiment: Inhibition of porcine pancreatic lipase type 2 at 10 uM by FRET assay
Bacteria = experiment: Inhibition of bacterial lipoprotein lipase at 10 uM by FRET assay
[2] = target: T2, Diacylglycerol lipase-alpha (Homo sapiens) (UniProt Q9Y4D2); experiment: Inhibition of human DAGLalpha expressed in HEK293T cell membrane using [14C]SAG substrate at 10 uM in detergent free solution by […]; format: cell-based; conditions: HEK-293T
T2 sequence (whole entry): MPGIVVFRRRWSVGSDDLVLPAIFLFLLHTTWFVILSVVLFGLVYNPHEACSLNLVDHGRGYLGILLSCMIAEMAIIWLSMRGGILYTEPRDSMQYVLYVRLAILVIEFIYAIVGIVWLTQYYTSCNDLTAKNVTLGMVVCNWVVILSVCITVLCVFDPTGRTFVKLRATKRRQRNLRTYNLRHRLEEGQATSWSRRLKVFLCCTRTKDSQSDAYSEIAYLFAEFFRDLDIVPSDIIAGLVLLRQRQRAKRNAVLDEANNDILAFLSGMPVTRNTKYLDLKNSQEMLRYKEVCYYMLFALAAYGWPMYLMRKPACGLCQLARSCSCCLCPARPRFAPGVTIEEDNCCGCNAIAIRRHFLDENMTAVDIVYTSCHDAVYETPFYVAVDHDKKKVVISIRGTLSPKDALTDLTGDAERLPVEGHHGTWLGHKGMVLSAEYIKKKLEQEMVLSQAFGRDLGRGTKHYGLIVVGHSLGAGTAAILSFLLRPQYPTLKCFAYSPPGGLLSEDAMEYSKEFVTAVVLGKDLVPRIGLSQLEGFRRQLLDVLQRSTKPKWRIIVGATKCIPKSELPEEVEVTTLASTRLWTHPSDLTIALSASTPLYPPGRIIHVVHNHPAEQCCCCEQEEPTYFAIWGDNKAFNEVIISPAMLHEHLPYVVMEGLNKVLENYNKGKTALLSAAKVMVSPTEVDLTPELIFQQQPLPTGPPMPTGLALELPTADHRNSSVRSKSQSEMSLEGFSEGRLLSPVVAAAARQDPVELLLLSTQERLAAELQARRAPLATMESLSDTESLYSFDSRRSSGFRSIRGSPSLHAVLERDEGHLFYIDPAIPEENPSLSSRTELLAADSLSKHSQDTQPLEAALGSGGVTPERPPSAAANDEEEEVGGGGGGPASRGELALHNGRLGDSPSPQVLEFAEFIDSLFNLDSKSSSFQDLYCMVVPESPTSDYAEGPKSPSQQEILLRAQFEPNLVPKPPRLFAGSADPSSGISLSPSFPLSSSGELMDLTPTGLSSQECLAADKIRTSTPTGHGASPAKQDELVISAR

[3] = target: T3, Diacylglycerol lipase-alpha (Mus musculus) (UniProt Q6WQJ1); experiment: Inhibition of mouse DAGLalpha expressed in HEK293T cell membrane using [14C]SAG substrate at 10000 nM by scintillation counting based radio-TLC assay; format: cell membranes; conditions: HEK-293T
T3 sequence (whole entry): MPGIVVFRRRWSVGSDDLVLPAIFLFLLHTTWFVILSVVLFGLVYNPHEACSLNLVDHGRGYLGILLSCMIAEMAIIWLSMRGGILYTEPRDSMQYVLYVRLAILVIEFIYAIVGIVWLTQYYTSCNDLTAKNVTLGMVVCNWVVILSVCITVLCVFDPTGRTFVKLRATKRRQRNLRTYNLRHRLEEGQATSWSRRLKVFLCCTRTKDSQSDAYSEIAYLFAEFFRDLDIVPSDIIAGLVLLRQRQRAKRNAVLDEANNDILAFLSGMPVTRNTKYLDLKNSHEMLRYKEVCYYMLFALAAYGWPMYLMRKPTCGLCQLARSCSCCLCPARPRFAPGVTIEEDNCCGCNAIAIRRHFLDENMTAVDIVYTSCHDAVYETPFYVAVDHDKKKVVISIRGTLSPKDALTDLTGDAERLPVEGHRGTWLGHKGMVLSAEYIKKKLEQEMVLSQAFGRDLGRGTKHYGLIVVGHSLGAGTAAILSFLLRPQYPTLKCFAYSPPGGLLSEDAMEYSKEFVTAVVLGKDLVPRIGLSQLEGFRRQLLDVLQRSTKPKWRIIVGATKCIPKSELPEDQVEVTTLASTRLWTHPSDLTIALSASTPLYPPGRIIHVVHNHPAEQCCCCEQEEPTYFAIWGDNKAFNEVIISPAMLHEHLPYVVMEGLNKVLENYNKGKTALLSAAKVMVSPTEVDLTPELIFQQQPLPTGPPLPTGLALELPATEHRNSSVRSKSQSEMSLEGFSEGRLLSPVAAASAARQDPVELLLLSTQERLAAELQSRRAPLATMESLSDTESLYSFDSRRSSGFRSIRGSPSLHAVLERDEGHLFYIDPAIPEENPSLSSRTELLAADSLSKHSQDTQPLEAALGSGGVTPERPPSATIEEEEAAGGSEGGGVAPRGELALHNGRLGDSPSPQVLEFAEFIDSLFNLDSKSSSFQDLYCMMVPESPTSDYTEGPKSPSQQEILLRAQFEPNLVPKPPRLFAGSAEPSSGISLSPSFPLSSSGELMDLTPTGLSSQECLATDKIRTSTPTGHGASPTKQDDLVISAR

[4] = target: T3, Diacylglycerol lipase-alpha (Mus musculus); experiment: Inhibition of mouse DAGLalpha expressed in HEK293T cell membrane using [14C]SAG substrate at 10 nM by scintillation counting based radio-TLC assay; format: cell membranes; conditions: HEK-293T
[5] = target: T4, Monoglyceride lipase (Homo sapiens) (UniProt Q99685); experiment: Inhibition of human N-terminal histidine tagged full length MAGL expressed in Escherichia coli at 10 uM by coumarin ester substrate fluorescence assay
T4 sequence (whole entry): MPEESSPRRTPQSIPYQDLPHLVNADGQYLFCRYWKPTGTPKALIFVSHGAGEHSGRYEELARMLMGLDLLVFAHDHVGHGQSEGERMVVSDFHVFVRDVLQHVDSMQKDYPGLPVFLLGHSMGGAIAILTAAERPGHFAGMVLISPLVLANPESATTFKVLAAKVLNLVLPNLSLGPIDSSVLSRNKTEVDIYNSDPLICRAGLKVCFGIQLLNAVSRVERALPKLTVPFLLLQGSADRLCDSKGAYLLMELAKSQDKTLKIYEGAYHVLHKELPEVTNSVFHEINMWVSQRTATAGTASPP

[6] = target: T2, Diacylglycerol lipase-alpha (Homo sapiens); experiment: Inhibition of human DAGLalpha expressed in HEK293T cell membrane using [14C]SAG substrate at 10 uM in detergent free solution by scintillation counting based radio-TLC assay; conditions: HEK-293T
[7] = target: T2, Diacylglycerol lipase-alpha (Homo sapiens); experiment: Inhibition of human DAGLalpha expressed in HEK293T cell membrane using [14C]SAG substrate at 10 uM using JZL184 pretreated protein in detergent free solution by […]; format: cell-based; conditions: HEK-293T
Cannabinoid receptor 2 [8] = target: Cannabinoid receptor 2 (Homo sapiens, UniProt P34972); experiment: Displacement of [3H]CP55940 from human CB2 receptor expressed in HEK293 cells; format: cell-based
Cannabinoid receptor 2 [9] = target: Cannabinoid receptor 2 (Mus musculus, UniProt P47936); experiment: Displacement of [3H]CP55940 from CB2 receptor in mouse spleen membrane; format: cell membranes
Cannabinoid receptor 1 = Cannabinoid receptor 1 (Rattus norvegicus, UniProt P20272); format: cell membranes, Brain
Chain of Cannabinoid receptor 1 (P20272 whole entry): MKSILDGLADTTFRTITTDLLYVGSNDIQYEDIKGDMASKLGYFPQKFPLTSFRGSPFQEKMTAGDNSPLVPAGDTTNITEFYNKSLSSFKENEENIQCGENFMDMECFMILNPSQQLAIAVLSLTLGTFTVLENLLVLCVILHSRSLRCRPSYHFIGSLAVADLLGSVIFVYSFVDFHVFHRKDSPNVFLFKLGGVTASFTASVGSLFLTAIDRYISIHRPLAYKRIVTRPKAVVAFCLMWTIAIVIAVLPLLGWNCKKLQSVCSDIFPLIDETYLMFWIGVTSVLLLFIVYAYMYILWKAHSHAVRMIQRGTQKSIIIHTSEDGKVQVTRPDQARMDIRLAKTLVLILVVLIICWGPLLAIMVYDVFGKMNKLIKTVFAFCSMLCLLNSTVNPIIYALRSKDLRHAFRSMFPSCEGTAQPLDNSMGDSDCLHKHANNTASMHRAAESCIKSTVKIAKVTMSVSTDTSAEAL
Description: Displacement of [3H]CP55940 from CB1 receptor in rat brain synaptosome membrane

Chain of Cannabinoid receptor 2 (Homo sapiens, UniProt P34972) (P34972 whole entry): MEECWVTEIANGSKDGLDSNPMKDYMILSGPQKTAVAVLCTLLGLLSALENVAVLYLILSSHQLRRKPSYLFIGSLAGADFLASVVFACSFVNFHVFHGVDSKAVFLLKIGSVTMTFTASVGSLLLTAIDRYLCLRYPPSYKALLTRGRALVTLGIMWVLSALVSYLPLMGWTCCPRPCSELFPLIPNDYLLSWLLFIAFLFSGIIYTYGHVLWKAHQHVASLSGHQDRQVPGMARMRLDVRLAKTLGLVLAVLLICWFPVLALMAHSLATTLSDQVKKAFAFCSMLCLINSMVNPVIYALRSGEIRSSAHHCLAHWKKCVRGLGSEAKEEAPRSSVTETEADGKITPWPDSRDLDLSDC
Chain of Cannabinoid receptor 2 (Mus musculus, UniProt P47936) (P47936 whole entry): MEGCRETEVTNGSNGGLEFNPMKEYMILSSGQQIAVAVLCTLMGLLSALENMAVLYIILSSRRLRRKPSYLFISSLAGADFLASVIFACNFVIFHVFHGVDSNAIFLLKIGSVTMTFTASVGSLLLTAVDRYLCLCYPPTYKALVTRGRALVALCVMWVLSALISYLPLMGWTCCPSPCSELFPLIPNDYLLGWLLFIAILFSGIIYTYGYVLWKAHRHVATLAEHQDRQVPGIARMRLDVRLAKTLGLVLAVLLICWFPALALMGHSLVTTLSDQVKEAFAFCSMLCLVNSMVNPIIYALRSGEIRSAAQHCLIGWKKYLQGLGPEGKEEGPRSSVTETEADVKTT

Row | SMILES | inhibition [1] | inhibition (Sus scrofa) [%] | inhibition (Bacteria) [%] | inhibition [2] [%] | inhibition [3] [%] | inhibition [4] | inhibition [5] | inhibition [6] | inhibition [7] [%] | Ki (Cannabinoid receptor 2 [8]) [nM] | Ki (Cannabinoid receptor 2 [9]) [nM] | Ki (Cannabinoid receptor 1) [nM]
1 | CCCCCCCCCCCCCCCCS(=O)(=O)F | 100% |  |  |  |  |  |  |  |  |  |  | 
2 | NC(=O)c1cccc(-c2cccc(OC(=O)NC3CCCCC3)c2)c1 |  | 68 | 21 | 22 | < 0 | inactive | 18% | inactive | 7 |  |  | 
3 | O=C(Oc1ccc([N+](=O)[O-])cc1)N1CCN(Cc2cccc(Oc3ccccc3)c2)CC1 |  | 43 | < 0 | 84 | 10 | inactive |  | inactive | 55 |  |  | 
4 | CCCCCCCC/C=C\CCCCCCCC(=O)OC(COC)COC(=O)NCCCCCCCC (racemic) | inactive |  |  |  |  |  | inactive |  |  | > 1000 | > 1000 | > 1000
5 | CCCCCCCC(=O)OC(CNC(=O)ON=C1CCCCC1)COC (racemic) | inactive |  |  |  |  |  | inactive |  |  | > 1000 | > 1000 | > 1000
6 | CCCCC/C=C\C/C=C\C/C=C\C/C=C\CCCC(=O)OC(COC)COC(=O)NCCCCCCCC (racemic) | inactive |  |  |  |  |  | inactive |  |  | > 1000 | > 1000 | > 1000
7 | CCCCCCCC/C=C\CCCCCCCC(=O)OC(CNC(=O)ON=C1CCCCC1)COC (racemic) | inactive |  |  |  |  |  | inactive |  |  | > 1000 | > 1000 | > 1000
8 | CCCCCCCCNC(=O)OCC(COC)OC(=O)NCCCCCCCC (racemic) | inactive |  |  |  |  |  | inactive |  |  | > 1000 | > 1000 | > 1000
9 | COCC(CNC(=O)ON=C1CCCCC1)OC(=O)CCCc1ccc(-c2ccccc2)cc1 (racemic) | inactive |  |  |  |  |  | inactive |  |  | > 1000 | > 1000 | > 1000
10 | CCCCCCCCOC(=O)NCC(COC)OC(=O)CCCCCCC (racemic) | inactive |  |  |  |  |  | inactive |  |  | > 1000 | > 1000 | > 1000
11 | CCCCCCCC/C=C\CCCCCCCC(=O)OC(CNC(=O)OCCCCCCCC)COC (racemic) | inactive |  |  |  |  |  | inactive |  |  | > 1000 | > 1000 | > 1000
12 | CCCCCCCC(=O)NCC(COC)OC(=O)CCCCCCC (racemic) | inactive |  |  |  |  |  | inactive |  |  | > 1000 | > 1000 | > 1000
13 | COCC(COC(=O)CCCc1ccc(-c2ccccc2)cc1)OC(=O)CCCc1ccc(-c2ccccc2)cc1 (racemic) | inactive |  |  |  |  |  | inactive |  |  | > 1000 | > 1000 | > 1000
14 | CCCCCCCC/C=C\CCCCCCCC(=O)OC(CNC(=O)CCCCCCC)COC (racemic) | inactive |  |  |  |  |  | inactive |  |  | > 1000 | > 1000 | > 1000
15 | CCCCCCCCNC(=O)OCC(OC)O[Si](c1ccccc1)(c1ccccc1)C(C)(C)C (racemic) | inactive |  |  |  |  |  | inactive |  |  | > 1000 | > 1000 | > 1000
16 | COCC(CNC(=O)CCCc1ccc(-c2ccccc2)cc1)OC(=O)CCCc1ccc(-c2ccccc2)cc1 (racemic) | inactive |  |  |  |  |  | inactive |  |  | > 1000 | > 1000 | > 1000
17 | CCCCCCCCNC(=O)OCC(COC)OC(=O)CCCCCCC (racemic) | inactive |  |  |  |  |  | inactive |  |  | > 1000 | > 1000 | > 1000
18 | COCC(O)CNC(=O)ON=C1CCCCC1 (racemic) | inactive |  |  |  |  |  | inactive |  |  | > 1000 | > 1000 | 
19 | CCCCCCCC(=O)OCC(COC)OC(=O)CCCCCCC (racemic) | inactive |  |  |  |  |  | inactive |  |  | > 1000 | > 1000 | > 1000
